Results taken from ChEMBL document CHEMBL3880392, “Tropane-derivatives, their preparation and use” (2002).

Tests used:
Assay type in all cases: subcellular
[1] = molecular target: Sodium-dependent dopamine transporter (Rattus norvegicus) (UniProt P23977); assay: Inhibition of re-uptake of [3H]dopamine at DAT in Wistar rat corpus striatum synaptosomes by liquid scintillation counting relative to untreated control; conditions: concentration not given here
[2] = molecular target: Transporter (Rattus norvegicus) (UniProt F1LNR9); assay: Inhibition of re-uptake of [3H]noradrenaline at NET in Wistar rat hippocampal synaptosomes by liquid scintillation counting relative to untreated control; conditions: Hippocampus, concentration not given here
Chain of Transporter (Rattus norvegicus) (F1LNR9 as listed by the source): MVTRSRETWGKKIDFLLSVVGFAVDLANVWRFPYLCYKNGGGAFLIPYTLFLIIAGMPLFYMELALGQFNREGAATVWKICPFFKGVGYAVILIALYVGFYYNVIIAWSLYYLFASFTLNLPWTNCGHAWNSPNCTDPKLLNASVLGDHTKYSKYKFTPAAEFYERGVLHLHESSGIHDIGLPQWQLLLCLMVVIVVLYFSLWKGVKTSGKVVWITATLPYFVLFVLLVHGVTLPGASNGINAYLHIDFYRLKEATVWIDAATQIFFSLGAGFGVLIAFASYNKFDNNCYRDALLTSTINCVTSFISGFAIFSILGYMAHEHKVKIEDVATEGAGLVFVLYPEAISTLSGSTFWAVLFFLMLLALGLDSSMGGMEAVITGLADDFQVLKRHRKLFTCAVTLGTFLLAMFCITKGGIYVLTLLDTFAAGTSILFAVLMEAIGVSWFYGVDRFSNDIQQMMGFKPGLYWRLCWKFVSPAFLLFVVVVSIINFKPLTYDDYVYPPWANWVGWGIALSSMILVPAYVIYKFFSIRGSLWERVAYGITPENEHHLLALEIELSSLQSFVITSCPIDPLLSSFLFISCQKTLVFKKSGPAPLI

[3] = molecular target: Sodium-dependent serotonin transporter (Rattus norvegicus) (UniProt P31652); assay: Inhibition of re-uptake of [3H]5-hydroxytryptamine at SERT in Wistar rat cortical synaptosomes by liquid scintillation counting relative to untreated control; conditions: concentration not given here
Chain of Sodium-dependent serotonin transporter (Rattus norvegicus) (P31652 whole entry): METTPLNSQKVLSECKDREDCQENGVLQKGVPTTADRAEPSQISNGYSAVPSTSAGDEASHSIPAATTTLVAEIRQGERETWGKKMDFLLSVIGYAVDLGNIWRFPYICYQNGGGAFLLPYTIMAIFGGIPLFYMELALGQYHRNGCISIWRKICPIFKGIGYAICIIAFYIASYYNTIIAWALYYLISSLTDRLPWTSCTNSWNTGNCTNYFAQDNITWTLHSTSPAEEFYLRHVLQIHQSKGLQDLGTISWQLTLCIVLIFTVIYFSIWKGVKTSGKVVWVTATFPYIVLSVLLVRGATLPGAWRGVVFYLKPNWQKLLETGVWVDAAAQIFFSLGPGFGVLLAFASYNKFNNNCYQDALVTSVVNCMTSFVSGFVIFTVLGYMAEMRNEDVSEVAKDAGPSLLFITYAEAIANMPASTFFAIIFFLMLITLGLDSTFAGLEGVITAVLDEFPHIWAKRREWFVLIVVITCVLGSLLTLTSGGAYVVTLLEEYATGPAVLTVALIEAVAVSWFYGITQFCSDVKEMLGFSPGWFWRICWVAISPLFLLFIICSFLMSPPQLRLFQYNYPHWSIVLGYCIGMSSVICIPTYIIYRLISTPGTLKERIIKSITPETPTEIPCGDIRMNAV

Measured: inhibition

Chain of Sodium-dependent dopamine transporter (Rattus norvegicus) (P23977 whole entry): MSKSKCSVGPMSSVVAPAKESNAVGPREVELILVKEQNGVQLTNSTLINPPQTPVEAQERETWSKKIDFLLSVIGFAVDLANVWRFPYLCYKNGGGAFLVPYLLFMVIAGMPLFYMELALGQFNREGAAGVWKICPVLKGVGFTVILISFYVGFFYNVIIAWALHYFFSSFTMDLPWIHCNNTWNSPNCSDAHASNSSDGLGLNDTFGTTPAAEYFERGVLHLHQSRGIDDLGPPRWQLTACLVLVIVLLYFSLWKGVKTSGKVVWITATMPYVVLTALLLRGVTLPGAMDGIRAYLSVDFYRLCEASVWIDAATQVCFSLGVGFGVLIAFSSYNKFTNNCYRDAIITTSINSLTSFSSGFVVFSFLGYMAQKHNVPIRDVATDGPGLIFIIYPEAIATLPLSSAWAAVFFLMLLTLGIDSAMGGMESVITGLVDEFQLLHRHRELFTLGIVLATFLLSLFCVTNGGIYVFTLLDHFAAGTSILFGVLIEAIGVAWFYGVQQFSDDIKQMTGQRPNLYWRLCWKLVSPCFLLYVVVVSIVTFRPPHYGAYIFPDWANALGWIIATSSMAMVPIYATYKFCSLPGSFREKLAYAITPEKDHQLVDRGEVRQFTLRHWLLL

COC[C@@H]1[C@@H](c2ccc(Cl)c(Cl)c2)C[C@@H]2CC[C@H]1N2C
25 to 75%: [1] | [2] | [3]

CN1[C@H]2CC[C@@H]1[C@H](CSc1ccccc1)[C@@H](c1ccc(Cl)c(Cl)c1)C2
25 to 75%: [1] | [2] | [3]

CCOC[C@@H]1[C@@H](c2ccc(Cl)c(Cl)c2)C[C@@H]2CC[C@H]1N2C
25 to 75%: [1] | [2] | [3]
